The subject of one assay is mouse spleen cells. Description: Action on the blastogenesis of mouse spleen cells (ConA-stimulated, MTT reduction method). Format: cell-based, BALB/c mouse. The conditions noted are these: Mus musculus, 72 h, ConA 1 µg/ml, 3 days, rate against no test compound = one. As for the experimental part: Serial two-fold dilutions (100 µl/well) with 10% FBS of test compounds which are dissolved in a dimethyl sulfoxide (DMSO) solution are obtained on a 96-well microplate, and used as test samples.
The spleen of a BALB/c mouse is aseptically isolated, and gently ground on a wire mesh with dropwise addition of sterilzed saline. The filtrate is passed through a nylon mesh (Becton Dickinson; pore size: 70 µm), thereby preparing a unicellular suspension.
After being washed twice with sterilized saline, the spleen cells are suspended in RPMI1460 containing 10% FCS and containing 1 µg/ml of concanavalin A (abbreviated as ConA: Sigma, U.S.) as well as an antibiotic (Sigma: Antibiotic Antimycotic), and dispensed into a 96-well microplate, in which 100 µl each of diluted test samples are previously dispensed, in amounts of 3 × 10^5 cells/100 µl/well.
Thereafter, culturing is carried out under 5% carbon dioxide gas at 37°C for 3 days, and then the blastogenesis of lymphocytes is measured by an MTT reduction method [Mosmann T, Journal of Immunological Method, vol. 65, p. 55, 1983]. The blastogenesis rate can be quantitated as a rate against the blastogenesis of those not having test compounds added thereto, which is defined as one. The presence of an immunoactivating action can be determined if the blastogenesis rate exceeds one.
Serial two-fold dilutions (100 µl/well) with RPMI1640 (Nikken Biomedical Laboratory) containing 10% FBS (bovine fetal serum: Dainippon Pharmaceutical Co., Ltd.) of test compounds which were dissoloved in a dimethylsulfoxide (DMSO) solution were obtained on a 96-well microplate, and used as test samples.
The spleen of a BALB/c mouse (a 6 week-old female) was aseptically isolated, and gently ground on a wire mesh with dropwise addition of sterilzed saline. The filtrate was passed through a nylon mesh (Becton Dickinson; pore size: 70 µm), thereby preparing a unicellular suspension.
After being washed twice with sterilized saline, the spleen cells were suspended in RPMI1460 containing 10% FCS and containing 1 µg/ml of concanavalin A (abbreviated as ConA: Sigma, U.S.) as well as an antibiotic (Sigma: Antibiotic Antimycotic), and dispensed into a 96-well microplate, in which 100 µl each of diluted test samples had previously been dispensed, in amounts of 3×10^5 cells/100 µl/well.
Thereafter, culturing was carried out under 5% carbon dioxide gas at 37°C for 3 days, and then the blastogenesis of lymphocytes was measured by an MTT reduction method [Mosmann T, Journal of Immunological Method, vol. 65, p. 55, 1983]. The results are shown in [Table 4].

The next assay deals with mouse bone marrow cells. Put plainly: Metabolism promoting action on mouse bone marrow cells (mitochondrial metabolism activity, MTT reduction method). The format is cell-based, BALB/c mouse. The note with it: Mus musculus, Bone marrow cell, 120 h, 5 days, magnitude of metabolism, no test compound = one. From the text: The presence of an immunoactivating action can be determined if the magnitude of metabolism exceeds one, where the cellular metabolism of cells not having test compounds added thereto is defined as one.
For orientation: Tetrazolium dyes change colour on reduction, which living cells bring about.

On to `COc1c(C2COc3cc(O)c(CC=C(C)C)c(OC)c3C2)ccc(O)c1CC=C(C)C` (stereo not shown) [A-8, 3-(4-hydroxy-2-methoxy-3-(3-methyl-2-butenyl)-phenyl)-3,4-dihydro-5-methoxy-7-hydroxy-6-(3-methyl-2-butenyl)-2H-1-benzopyran], for which the activity at 0.1 µg/mL in the assay with mouse spleen cells (concentration of additions in medium 0.1 μg/ml) was found to be 111%. For the same compound, the activity at 0.2 µg/mL with mouse spleen cells (concentration of additions in medium 0.2 μg/ml) was found to be 99%. For the same compound, the values for the activity at 0.39 µg/mL with mouse spleen cells (concentration of additions in medium 0.39 μg/ml) and in the assay with mouse bone marrow cells (Test compound concentration 0.39 µg/ml) were 112% and 113%, respectively. Further, the activity at 0.78 µg/mL was determined as 122% with mouse spleen cells (concentration of additions in medium 0.78 μg/ml) and 127% in the assay on mouse bone marrow cells (Test compound concentration 0.78 µg/ml). Moreover, the activity at 1.56 µg/mL in the assay on mouse spleen cells (concentration of additions in medium 1.56 μg/ml) was 103%; in the assay on mouse bone marrow cells (Test compound concentration 1.56 µg/ml), 161%. The activity at 3.13 µg/mL was 34% in the assay with mouse spleen cells (concentration of additions in medium 3.13 μg/ml) and 156% in the assay with mouse bone marrow cells (Test compound concentration 3.13 µg/ml). In addition, the figures for the activity at 6.25 µg/mL in the assay on mouse spleen cells (concentration of additions in medium 6.25 μg/ml) and with mouse bone marrow cells (Test compound concentration 6.25 µg/ml) were 23% and 50%, respectively. Moreover, the activity at 12.5 µg/mL with mouse bone marrow cells (Test compound concentration 12.5 µg/ml) was 51%.
